Measurements: ChEMBL document CHEMBL1201862, “PubChem BioAssay data set” (2004)
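Where inhibition never reached the appropriate level, the endpoint shown equals the highest concentration tested. Otherwise, values were interpolated linearly from a five-concentration, 48-hour dose response in 96-well plates. GI50 = concentration required for 50% inhibition of growth.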 Active and inactive are the calls of the source. Cut-off read from the data, not from the text of the source: active = GI50 up to about 1.1 µM and inactive = higher.

Key:
Assay in all cases: growth of human tumour cells (NCI), 48 h
UACC-257 = system: UACC-257
786-0 = system: 786-0
RPMI-8226 = system: RPMI-8226
SF-268 = system: SF-268
EKVX = system: EKVX
HOP-62 = system: HOP-62
PC-3 = system: PC-3
U-251 = system: U-251
UO-31 = system: UO-31
NCI-H460 = system: NCI-H460
OVCAR-5 = system: OVCAR-5
M14 = system: M14
MOLT-4 = system: MOLT-4
A498 = system: A498
IGROV-1 = system: IGROV-1
CCRF-CEM = system: CCRF-CEM
DU-145 = system: DU-145
SK-MEL-2 = system: SK-MEL-2
MDA-MB-435 = system: MDA-MB-435
ACHN = system: ACHN

SMILES | GI50 (UACC-257) | GI50 (786-0) | GI50 (RPMI-8226) | GI50 (SF-268) | GI50 (EKVX) | GI50 (HOP-62) | GI50 (PC-3) | GI50 (U-251) | GI50 (UO-31) | GI50 (NCI-H460) | GI50 (OVCAR-5) | GI50 (M14) | GI50 (MOLT-4) | GI50 (A498) | GI50 (IGROV-1) | GI50 (CCRF-CEM) | GI50 (DU-145) | GI50 (SK-MEL-2) | GI50 (MDA-MB-435) | GI50 (ACHN)
O=C1c2ccccc2CC12Cc1cc3c(cc1C2=O)CCC3 (stereo unspecified) | > 100 µM (inactive) | > 100 µM (inactive) | 43.6 µM (inactive) | > 100 µM (inactive) | > 100 µM (inactive) | > 100 µM (inactive) | > 100 µM (inactive) | > 100 µM (inactive) | > 100 µM (inactive) | > 100 µM (inactive) | > 100 µM (inactive) | > 100 µM (inactive) | > 100 µM (inactive) | > 100 µM (inactive) | > 100 µM (inactive) | > 100 µM (inactive) | > 100 µM (inactive) | > 100 µM (inactive) | > 100 µM (inactive) | > 100 µM (inactive)
NC(C(=O)O)C(O)c1c[nH]cn1 (stereo unspecified) | > 100 µM (inactive) | > 100 µM (inactive) | > 100 µM (inactive) | > 100 µM (inactive) | > 100 µM (inactive) | > 100 µM (inactive) | > 100 µM (inactive) | > 100 µM (inactive) | – | > 100 µM (inactive) | > 100 µM (inactive) | > 100 µM (inactive) | > 100 µM (inactive) | > 100 µM (inactive) | > 100 µM (inactive) | > 100 µM (inactive) | > 100 µM (inactive) | > 100 µM (inactive) | > 100 µM (inactive) | > 100 µM (inactive)
NC(=O)c1ccc(S(=O)(=NS(=O)(=O)c2ccccc2)c2ccc(C(N)=O)cc2)cc1 | > 100 µM (inactive) | > 100 µM (inactive) | > 100 µM (inactive) | > 100 µM (inactive) | > 100 µM (inactive) | > 100 µM (inactive) | > 100 µM (inactive) | > 100 µM (inactive) | > 100 µM (inactive) | > 100 µM (inactive) | > 100 µM (inactive) | > 100 µM (inactive) | > 100 µM (inactive) | > 100 µM (inactive) | > 100 µM (inactive) | > 100 µM (inactive) | > 100 µM (inactive) | > 100 µM (inactive) | > 100 µM (inactive) | > 100 µM (inactive)
C[C@H](CCC1=NCCN1)[C@H]1CC[C@H]2[C@@H]3CC[C@@H]4C[C@H](O)CC[C@]4(C)[C@H]3CC[C@]12C | 2.55 µM (inactive) | 2.37 µM (inactive) | 3.13 µM (inactive) | 10.6 µM (inactive) | 13.3 µM (inactive) | 3.46 µM (inactive) | 4.94 µM (inactive) | 6.05 µM (inactive) | 14.2 µM (inactive) | 2.91 µM (inactive) | 10.7 µM (inactive) | 2.49 µM (inactive) | 2.7 µM (inactive) | 14.9 µM (inactive) | 8.28 µM (inactive) | 4.08 µM (inactive) | 13.9 µM (inactive) | 4.49 µM (inactive) | 4.53 µM (inactive) | 7.91 µM (inactive)
O=C(c1ccco1)N(C(=S)OCCOc1ccccc1)c1ccccc1 | 17.9 µM (inactive) | 19.7 µM (inactive) | 19.8 µM (inactive) | 18 µM (inactive) | 22.1 µM (inactive) | 16.2 µM (inactive) | 24.1 µM (inactive) | 16.5 µM (inactive) | 15.7 µM (inactive) | 21.9 µM (inactive) | 19.2 µM (inactive) | 19.5 µM (inactive) | 23.8 µM (inactive) | 16 µM (inactive) | 17.7 µM (inactive) | 20.1 µM (inactive) | 20.3 µM (inactive) | 19.6 µM (inactive) | 16.2 µM (inactive) | 23 µM (inactive)
O=C(OC1=CCN(Br)C1=O)C1=C(O)C(=O)N(Br)C1 | 26.9 µM (inactive) | 16.7 µM (inactive) | 24.4 µM (inactive) | 24.9 µM (inactive) | 25.1 µM (inactive) | 24 µM (inactive) | 29.3 µM (inactive) | 22.5 µM (inactive) | 45.4 µM (inactive) | 38.3 µM (inactive) | 21.1 µM (inactive) | 51.8 µM (inactive) | 22.8 µM (inactive) | > 100 µM (inactive) | 39.1 µM (inactive) | 27.1 µM (inactive) | 53.2 µM (inactive) | 26.4 µM (inactive) | 33.1 µM (inactive) | 33.9 µM (inactive)
Cc1ccc(/C=c2\cc3oc(=O)c4cccc(c4-3)c2=O)cc1 | > 100 µM (inactive) | > 100 µM (inactive) | 31.2 µM (inactive) | 59.3 µM (inactive) | > 100 µM (inactive) | > 100 µM (inactive) | > 100 µM (inactive) | 63.7 µM (inactive) | > 100 µM (inactive) | > 100 µM (inactive) | > 100 µM (inactive) | > 100 µM (inactive) | > 10 µM (inactive) | > 100 µM (inactive) | 88.3 µM (inactive) | 19.6 µM (inactive) | > 100 µM (inactive) | > 100 µM (inactive) | > 100 µM (inactive) | > 100 µM (inactive)
Cc1cc2c(Br)cc(Br)c(O)c2nc1C(=O)c1ccccc1 | 24.5 µM (inactive) | 10.2 µM (inactive) | 22.4 µM (inactive) | 28.3 µM (inactive) | > 51.6 µM (inactive) | 14 µM (inactive) | 13.4 µM (inactive) | 14.4 µM (inactive) | 12.2 µM (inactive) | 10.6 µM (inactive) | > 45.1 µM (inactive) | > 43.3 µM (inactive) | 24.3 µM (inactive) | 20.7 µM (inactive) | 21 µM (inactive) | 8.11 µM (inactive) | 17 µM (inactive) | > 61.1 µM (inactive) | 43.1 µM (inactive) | 20.8 µM (inactive)
CCC1(OC(=O)CNC)C(=O)OCc2c1cc1n(c2=O)Cc2cc3ccccc3nc2-1 (stereo unspecified) | 0.0393 µM (active) | < 0.01 µM (active) | < 0.0137 µM (active) | < 0.01 µM (active) | 0.127 µM (active) | < 0.01 µM (active) | 0.0269 µM (active) | < 0.01 µM (active) | < 0.0125 µM (active) | < 0.01 µM (active) | 0.0247 µM (active) | < 0.0105 µM (active) | < 0.01 µM (active) | < 0.0179 µM (active) | 0.0601 µM (active) | < 0.01 µM (active) | < 0.01 µM (active) | 0.155 µM (active) | 0.0234 µM (active) | < 0.01 µM (active)
Brc1ccc(-c2ccc(-c3ccc(Br)s3)s2)s1 | > 100 µM (inactive) | > 100 µM (inactive) | > 100 µM (inactive) | > 100 µM (inactive) | > 100 µM (inactive) | > 100 µM (inactive) | > 100 µM (inactive) | > 100 µM (inactive) | > 100 µM (inactive) | > 100 µM (inactive) | > 100 µM (inactive) | > 100 µM (inactive) | > 100 µM (inactive) | > 100 µM (inactive) | > 100 µM (inactive) | > 100 µM (inactive) | > 100 µM (inactive) | > 100 µM (inactive) | > 100 µM (inactive) | > 100 µM (inactive)
Cc1cc2nnc(C(N)=O)c(N)c2cc1C | > 100 µM (inactive) | 29.1 µM (inactive) | > 100 µM (inactive) | 30.1 µM (inactive) | > 100 µM (inactive) | 39.8 µM (inactive) | > 100 µM (inactive) | > 100 µM (inactive) | > 100 µM (inactive) | > 100 µM (inactive) | > 100 µM (inactive) | > 100 µM (inactive) | > 100 µM (inactive) | > 100 µM (inactive) | > 100 µM (inactive) | > 100 µM (inactive) | > 100 µM (inactive) | 64.7 µM (inactive) | > 100 µM (inactive) | > 100 µM (inactive)
CN(C)CCN(C)c1ccc2c(=O)n(CCN(C)C)c(=O)n3c4ccccc4c(=O)c1c23 | 1.56 µM (inactive) | 0.108 µM (active) | 0.179 µM (active) | – | 1.66 µM (inactive) | 0.0897 µM (active) | 0.973 µM (active) | 0.489 µM (active) | 0.516 µM (active) | 0.029 µM (active) | 1.87 µM (inactive) | 0.986 µM (active) | 0.0167 µM (active) | 0.471 µM (active) | 0.426 µM (active) | < 0.0258 µM (active) | 0.128 µM (active) | 2.87 µM (inactive) | 1.26 µM (inactive) | 0.0436 µM (active)
Cc1cc(S(=O)(=O)Nc2nc(N)n[nH]2)c(Cl)cc1Cl | > 10 µM (inactive) | > 10 µM (inactive) | > 10 µM (inactive) | > 10 µM (inactive) | > 10 µM (inactive) | > 10 µM (inactive) | > 10 µM (inactive) | > 10 µM (inactive) | – | > 10 µM (inactive) | > 10 µM (inactive) | > 10 µM (inactive) | > 10 µM (inactive) | > 10 µM (inactive) | > 10 µM (inactive) | > 10 µM (inactive) | > 10 µM (inactive) | > 10 µM (inactive) | > 10 µM (inactive) | > 10 µM (inactive)
Cc1n[nH]c(=O)n1/N=C\c1ccccc1 | > 100 µM (inactive) | > 100 µM (inactive) | > 100 µM (inactive) | 0.0855 µM (active) | > 100 µM (inactive) | > 100 µM (inactive) | > 100 µM (inactive) | > 100 µM (inactive) | > 100 µM (inactive) | > 100 µM (inactive) | > 100 µM (inactive) | – | > 100 µM (inactive) | > 100 µM (inactive) | > 100 µM (inactive) | > 100 µM (inactive) | > 100 µM (inactive) | 83.9 µM (inactive) | > 100 µM (inactive) | > 100 µM (inactive)
